One series in a line: Solubility. Format: physicochemical.
For series [1] the following is noted: cited from earlier work; for Acute Oral LD50: rats.
Series [2] can be described thus: Stability of iodopropynyl butylcarbamate to temperature and pH. To be noted: 70~80° C. and pH 4~10.
A further series has as its system Pityrosporum ovlae. The series can be described thus: Antibacterial activity against Pityrosporum ovlae (general statement). Format: cell-based.
The conditions of series [3]: cited from earlier work.

Turning to `CCCCNC(=O)OCC#CI` [iodopropynyl butylcarbamate], the “solubility in alcohols or glycol derivatives” value in the series “Solubility” (alcohols or glycol derivatives) was “high solubility”. In addition, the “solubility in ionic or non-ionic surfactants” value in “Solubility” (ionic or non-ionic surfactants) is recorded as “good solubility”. In addition, in “Solubility” (water), the “solubility in water” value is given as “low solubility”. Further, the “safety and toxicity compared with zinc pyrithione” value in series [1] (compared with zinc pyrithione) was “very advantageous over zinc pyrithione”. Further, in series [1], the “Acute Oral LD50” value is reported as 1470 mg/kg. Moreover, the “stability” value in series [2] was “very stable”. Also, in the series with Pityrosporum ovlae, the “MIC” value is listed as “very low” and the “antibacterial action” value was “very strong”.

As for `[O-]n1ccccc1=S.[O-]n1ccccc1=S.[Zn+2]` [zinc pyrithione, zinc salt of 1-hydroxy-2(1H) pyridinethione], the “Acute Oral LD50” value in series [1] is 354 mg/kg. For the same compound, the solubility in ethanol in series [3] (ethanol) is recorded as 310 ppm. Moreover, the “solubility in water at 25° C.” value in series [3] (water, 25° C.) was “about 15 ppm”. Further, the “solubility” value in series [3] (water, ethanol and most common organic solvents such as ethylene glycol, diethyl ether and isopropanol) is “substantially insoluble”.

The values are drawn from patent US6054450A, “Hair-care cosmetic compositions having dandruff formation-suppressing effect” (Pacific Corporation, priority 1997, dated 2000).
